Data taken from patent US9616062B2, “Cyclin dependent kinase inhibitors and methods of use” (priority 2009, dated 2017).

Tests used:
[1] = test system: primary human renal proximal tubule epithelial cells; experiment: γH2AX flow cytometry assay of etoposide-induced DNA damage; type: cell-based; conditions: 0, 100 nM, 300 nM or 1 μM for 16 h, then 2.5 μM etoposide for 8 h
Procedure: Cells were pretreated for 16 hours with PD0332991 followed by 8 hours with etoposide (Etop). Cells were collected, fixed and stained with anti-γH2AX FITC and analyzed by flow cytometry. Data was analyzed using FlowJo (Treestar, Inc., Ashland, Oreg., United States of America). The % γH2AX positive cells are shown in the accompanying graph.
Primary normal human renal proximal epithelial cells (American Type Culture Collection (ATCC), Manassas, Va., United States of America) were cultured in renal epithelial cell basal media supplemented with renal epithelial cell growth kit according to the manufacturer's recommendations. […] For the γH2AX assay, cells were fixed, permeabilized, and stained with anti-γH2AX as per γH2AX Flow Kit (Millipore, Billerica, Mass., United States of America). γH2AX levels were assessed by flow cytometry. Cell proliferation was assessed by seeding 1×10^3 cells per well in a 96-well tissue culture plate in 100 μL of growth medium. […] At the end of the recovery period, cell number was quantified using CellTiter-Glo® (Promega, Fitchburg, Wis., United States of America) or WST-1 reagent (TaKaRa Bio USA, Madison, Wis., United States of America). Cellular cytotoxicity was assessed using the TOXILIGHT™ Bioassay kit (Lonza, Basel, Switzerland) which measures cytolysis by quantifying the release of Adenylate Kinase into the culture media. […]

[2] = test system: primary human renal proximal tubule epithelial cells; experiment: Protection from etoposide-induced cell death, CellTiter-Glo on day 7; type: cell-based; conditions: 16 h pretreatment, 2.5 μM etoposide 8 h, 7 days recovery
Procedure: FIG. 5: CDK4/6 inhibition protects primary human renal proximal tubule epithelial cells from etoposide-induced cell death. PD0332991 inhibits chemotherapy-induced cytotoxicity in a cdk4/6 dependent manner. Primary human renal proximal tubule epithelial cells were incubated with 30 nM or 100 nM PD0332991 for 16 hours. Etoposide (Etop, 2.5 μM) was added for 8 hours. Following incubation, the media was replaced with fresh media and the cells were incubated for an additional 7 days. On day 7, cell proliferation was assessed using CellTiter-Glo® (Promega, Madison, Wis., United States of America). Error bars show +/−standard deviation.
Primary normal human renal proximal epithelial cells (American Type Culture Collection (ATCC), Manassas, Va., United States of America) were cultured in renal epithelial cell basal media supplemented with renal epithelial cell growth kit according to the manufacturer's recommendations. […] For the γH2AX assay, cells were fixed, permeabilized, and stained with anti-γH2AX as per γH2AX Flow Kit (Millipore, Billerica, Mass., United States of America). γH2AX levels were assessed by flow cytometry. Cell proliferation was assessed by seeding 1×10^3 cells per well in a 96-well tissue culture plate in 100 μL of growth medium. […] 100 μL of TOXILIGHT™ reagent is added and incubated for 5 minutes and read in a luminometer at 1 second/well. […]

[3] = test system: C3-TAg mice (RB-deficient breast cancer); experiment: C3-Tag transgenic mouse model of basal-like breast cancer, tumor volume; type: in vivo; conditions: daily administration, 100 mg/kg daily in standard chow
Procedure: FIG. 9: CDK4/6 inhibition potentiates the efficacy of chemotherapy in mouse model of RB-deficient breast cancer. […] Data are % change in tumor volume and represents the mean of at least 15 animals per cohort +/−SEM
FIG. 10: CDK4/6 inhibition potentiates the efficacy of chemotherapy in mouse model of RB-deficient breast cancer. Mice were treated every 7 days for three weeks with carboplatin (90 mg/kg IP) alone (darkly shaded squares) or in combination with PD0332991 (150 mg/kg PO; lightly shaded squares). Data are % change in tumor volume and represents the mean of at least 15 animals per cohort +/−SEM.
The C3-TAg mice are a model of basal-like breast cancer. […] The MMTV-c-neu model expresses c-neu (the mouse ortholog of human HER2) driven by the mouse mammary tumor virus (MMTV) promoter and is a model of HER2+ breast cancer. When tumors were noted to be ˜0.2 cm^2 in size, animals were treated as described and tumor response assessed by daily caliper measurements.
The effects of CDK4/6 inhibition in the C3-Tag transgenic mouse model of basal-like breast cancer were also evaluated. […] Tumor volume was measured by caliper weekly. Tumor volume was calculated using the following formula: Volume=[(width)^2×length]/2. […] Treatments were administered on days 0, 7 and 14 and tumor volumes were measured weekly, until the mice died or were euthanized due to toxicity or tumor burden.

Structure (SMILES): CC(=O)c1c(C)c2cnc(Nc3ccc(N4CCNCC4)cn3)nc2n(C2CCCC2)c1=O [PD0332991, 6-acetyl-8-cyclopentyl-5-methyl-2-(5-piperazin-1-yl-pyridin-2-ylamino)-8H-pyrido-[2,3-d]-pyrimidin-7-one]
- etoposide-induced DNA damage (% γH2AX positive cells) [1]: abrogates etoposide-induced DNA damage
- protection from etoposide-induced cell death [2]: protection from etoposide induced cell death
- tumor growth at day 21 [3]: no effect on tumor growth
